Measured values: patent US5047533A, “Acyclic purine phosphonate nucleotide analogs” (SRI International, priority 1990, dated 1991)
≈ marks a conversion by molar mass, not a printed value. Like-named read-outs stand apart in the source and are kept apart here.

What was measured:
MA-104 cells = assay: Cytotoxicity controls (maximum tolerated dose) in MA-104 cells; type: cell-based, monkey; settings: Table 3 Test 2
Protocol: (§1) Continuous passaged monkey kidney (MA-104) cells were used for testing of herpes-type virus, with growth medium consisting of Minimum Essential Medium (MEM) supplemented with 0.1% NaHCO3 and […] gentamicin.
(§2) To a 96 well microtiter plate containing an established 24 hour monolayer of cells from which the medium has been decanted was added 0.1 ml of varying (one-half log10) concentrations of test compound, which incubated on the cell 15 minutes, after which 0.1 ml of virus in a concentration of 320 cell culture 50% infectious doses (CCID50)/0.1 ml was added. The plate was covered with plastic wrap and incubated at 37° C. Included with the test were toxicity controls (each concentration of compound+test medium in place of virus), virus controls (virus+test medium in place of compound) and cell controls (test medium in place of compound and virus). The cells were examined microscopically after 72 hours for evidence of cytotoxicity and for viral cytopathic effect (CPE). Vidarabine was run on the same plate in parallel. […] were added to the medium at a concentration of 2000 μg/ml for use as a positive control.
*Maximum tolerated dose, μg/ml.

HIV = assay: Antiviral activity versus HIV in lymphoblastoid cells; type: cell-based; settings: Human immunodeficiency virus 1, Lymphoblastoid cell, read-out: ED50 against HIV
Protocol: The compounds of the invention were evaluated in vitro as antiviral agents against herpes virus and against RNA retrovirus. Various herpes strains were used. An infected B lymphoblastoid cell line was used as HIV substrate to test antiviral activity with respect to RNA retrovirus.
To test antiviral activity versus HIV, the following procedure was used: Infectious HIV was assayed in cell culture as described originally by Barre-Sinoussi et al for isolation of LAV, except that persistently infected lymphoblastoid cells were used instead of mononuclear cells from anti-LAV negative donors. HIV obtained from cell culture was stored in liquid nitrogen in aliquots of RPMI 1640 culture medium with 20% of total calf serum and 20% glycerol and containing 1,000 TCID-50 HIV. The lymphoblastoid cells (10^6) were incubated with 1,000 TCID-50 of HIV obtained from cell cultures, and cells were then cultured in RPMI-1640 medium. Culture medium was changed every 3 days for 3 weeks and the medium for each 3-day period from Day 6 through Day 21 was assayed for viral reverse transcriptase activity by concentrating (pelleting) virus by ultracentrifugation in the 100 place Spinco 25 rotor and assaying pellets for reverse transcriptase (RT) using a ^32 P-dTTP in the presence of dimer-template poly rA-oligo dT. […]

[1] = test system: HSV-1TK+ (Strain McCrae of type 1 herpes); assay: Inhibition of viral CPE, HSV-1TK+ in MA-104 cells; type: cell-based
Protocol: (§3) One herpes virus strain employed was Strain McCrae of type 1 herpes (thymidine kinase positive virus) (HSV-1TK^+). This strain was prepared and titered in MA-104 cells and frozen at -90° C. until use. Also used were strain HF (HSV-1TK^-). Strain E194 (HSV-2), NJB strain (MCMV), strain AD169 (HCMV).
as §1, §2
Antiviral activity was determined by observation of inhibition of viral CPE. This activity was expressed by ED50, defined as that dose range of compound causing 50% CPE inhibition.
A Virus Rating (VR) was also determined. VR is a numerical expression of antiviral activity, weighted to take into account any cytotoxicity observed, as discussed by Sidewell et al, Appl Microbiol (1971) 22:797. Generally, a VR of 0.1-0.4 indicates slight antiviral effect, 0.5-0.9 indicates moderate antiviral effect, and ≥1.0 indicates strong antiviral effect.

HSV-1TK+ = assay: In vivo guinea pig HSV-1TK+ lesion test, topical solution; settings: guinea pigs; for TK+ (average number of lesions): five days after treatment
Protocol: Compound 2 also was tested in vivo in guinea pigs as an agent against HSV-1TK^+. The animals were inoculated with the virus; 18 hours later Compound 2 at two concentrations (0.4% and 1-2% (saturated) solution in water) was administered, and five days later blister diameters at the point of inoculation were measured. A 5% solution of acyclovir or a 1.4% solution of poly(vinylalcohol) was used as control. Satellite lesions were measured, as well.

[2] = test system: human cytomegalovirus (strain AD169); assay: Plaque reduction, human cytomegalovirus; type: cell-based
Protocol: as §3
^a 50% effective dose, determined from plot of data.
(§4) The data on acyclovir were gathered from tests run in MRC-5 cells grown under agarose overlay, with plaques read 7 days after virus exposure.

cells = assay: Cytotoxicity (maximum tolerated dose), control tests in 96-well microplates; type: cell-based; settings: overall, Table 5
Source text: (§5) ^b Maximum tolerated dose: That dose causing approximately 50%
(§6) cytotoxic effects in cells, determined by the microscopic examination of
(§7) cells for sloughing, shape alteration, and granularity in separately run
(§8) control tests in 96well microplates.
as §4

[3] = as above; type: cell-based; settings: Table 5; microscopic examination, separately run control tests; read-out: Approx. MTD (dose causing approximately 50% cytotoxic effects in cells)
Source text: as §5, §6, §7, §8, §4

[4] = 1-2% (saturated) solution in water

**Q.** Which results are given for `CCOP(=O)(O)CCCOCn1cnc2c(=O)[nH]c(N)nc21` [Compound 2, 9(3'-ethylphosphono-1'-propyloxymethyl)guanine]?
**A.** MTD (Maximum tolerated dose) (MA-104 cells): > 1000 µg/mL; EC50 (HIV): 30 µg/mL (≈ 90.6 µM); activity against HSV-1TK+ relative to vidarabine [1]: comparable to that of vidarabine; EC50 ([1]; MA104, 72 h, read-out: ED50): < 1 µg/mL; inhibition at 1000 µg/mL ([1]; MA104, read-out: CPE Inhib., Table 3 Test 1, 1000 μg/ml): 100%; VR (Virus Rating) ([1]; Table 3 Test 1, HSV-1TK+): > 2.0; ED50 ([1]; Table 3 Test 2, HSV-1TK+): < 1.0 µg/mL; VR (Virus Rating) ([1]; Table 3 Test 2, HSV-1TK+): > 1.4; Satellite lesions (HSV-1TK+; 0.4% solution in water): 11; TK+ (average number of lesions) (HSV-1TK+; 0.4% solution in water): 2.1; Satellite lesions (HSV-1TK+; [4]): 6; TK+ (average number of lesions) (HSV-1TK+; [4]): 0.9; activity against HSV TK+ virus in vivo (HSV-1TK+; at least in saturated solution): has activity; No. Plaques ([2]; Experiment No. 1, 32 μg/ml): 5; No. Plaques ([2]; Experiment No. 1, 100 μg/ml): 0; No. Plaques ([2]; Experiment No. 2, 10 μg/ml): 17; No. Plaques ([2]; Experiment No. 2, 32 μg/ml): 6; No. Plaques ([2]; Experiment No. 2, 100 μg/ml): 1; inhibition at 32 µg/mL ([2]; Human betaherpesvirus 5, AD169, read-out: % Reduct., Experiment No. 1, 32 μg/ml): 71%; inhibition at 100 µg/mL ([2]; Human betaherpesvirus 5, AD169, read-out: % Reduct., Experiment No. 1, 100 μg/ml): 100%; inhibition at 10 µg/mL ([2]; Human betaherpesvirus 5, AD169, read-out: % Reduct., Experiment No. 2, 10 μg/ml): 23%; inhibition at 32 µg/mL ([2]; Human betaherpesvirus 5, AD169, read-out: % Reduct., Experiment No. 2, 32 μg/ml): 73%; inhibition at 100 µg/mL ([2]; Human betaherpesvirus 5, AD169, read-out: % Reduct., Experiment No. 2, 100 μg/ml): 96%; EC50 ([2]; Human betaherpesvirus 5, AD169, read-out: Approx. ED50, Experiment No. 2, determined from plot of data): 10 to 32 µg/mL (≈ 30.2 to 96.6 µM); EC50 ([2]; Human betaherpesvirus 5, AD169, read-out: ED50, human CMV): 10 µg/mL (≈ 30.2 µM); human CMV-inhibitory effect relative to acyclovir ([2]; overall, Table 5): approximately the same; cytotoxicity relative to acyclovir (cells): approximately the same; CC50 [3]: ~1000 µg/mL (≈ 3020 µM)
